Experimental findings from patent US20120053056A1, “COMPOSITIONS AND METHODS FOR IMPROVING THE COMPATIBILITY OF WATER SOLUBLE HERBICIDE SALTS” (DOW AGROSCIENCES LLC, priority 2010, published 2012) are described below.

Data set [1] is described as follows: On-set pH of crystallization of aqueous 2,4-D potassium solution with added crystal inhibitor (CI), pH lowered with 0.2 N sulfuric acid. As to conditions: 3% ae 2,4-D K salt in water; CI 0.2 wt %. Format: physicochemical.
Data set [2] in a line: Spray solution compatibility (crystal formation) of 2,4-D and glyphosate salts with 2% AMS and added crystal inhibitor. Format: physicochemical. As to conditions: 2% AMS, 342 ppm hardness water, 24 h room temperature. The source says:
Spray solutions were formed from aqueous concentrates of 2,4-D choline (prepared by mixing equimolar amounts of 2,4-D acid and choline hydroxide in water) or 2,4-D DMA and various glyphosate salts (potassium, isopropyl ammonium or dimethyl ammonium) at various concentrations (weight percent acid equivalent basis) of the respective active ingredients with and without added polyethylenimine or polyvinylamine crystal inhibitor (CI).

Regarding `NCCNCCNCCNCCN` [TEPA, tetraethylenepentamine], the “On-set pH of Crystallization” value in data set [1] came out at 5.68. In addition, the “Result (crystals observed 24 hours after preparation of tank mixture)” value in data set [2] (2,4-D choline 1.8 wt % ae + WeatherMax 1.8 wt % ae, CI 0.2%) is 1; in data set [2] (2,4-D choline 1.8 wt % ae + WeatherMax 1.8 wt % ae, CI 0.4%) it was 0; in data set [2] (2,4-D choline 1.8 wt % ae + WeatherMax (glyphosate potassium) 1.8 wt % ae, CI 0.1%), 3.
